In patent US20250171420A1 (Monte Rosa Therapeutics, Inc., priority 2022, published 2025):

Legend:
Type in all cases: cell-based
SKCO1 cell line = assay: Growth inhibition, CyQUANT Direct Cell Proliferation Assay, SKCO1; conditions: Homo sapiens, SK-CO-1; SKCO1, 120 to 168 hours; read-out: SKCO1 GI50
Outline: (§1)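 Cells seeded 300 to 1,800 per well, day-0 CyQUANT Direct read after overnight attachment; 9-point 3-fold dilutions from 30 μM top concentration, 120 to 168 h exposure, 0.3% DMSO control. Fluorescence Ex/Em 480/520 nm; growth inhibition normalised to day-0 and untreated day-N signals, GI50 at 50% of untreated control.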

GP2D cell line = assay: Growth inhibition, CyQUANT Direct Cell Proliferation Assay, GP2D; conditions: GP2D, 120 to 168 hours; read-out: GP2D GI50
Outline: as §1

LS174T cell line = assay: Growth inhibition, CyQUANT Direct Cell Proliferation Assay, LS174T; conditions: Homo sapiens, 120 to 168 hours, read-out: LS174T GI50
Outline: as §1

- GI50 (SKCO1 cell line): < 100 nM
SMILES: C[C@@H]1Cc2ccccc2N1C(=O)Nc1ccc2c(c1)CN(C1CCC(=O)NC1=O)C2=O (stereo partly drawn) [Compound 102, (2R)—N-(2-(2,6-dioxopiperidin-3-yl)-1-oxoisoindolin-5-yl)-2-methylindoline-1-carboxamide]
- GI50 (GP2D cell line): 100 to 1000 nM
- GI50 (LS174T cell line): 100 to 1000 nM
